Measurements: patent US20230277669A1, “USES OF UROLITHINS” (Amazentis SA, priority 2022, published 2023)

Tested on: APTK-s.c. tumors
Experiment: Oral UA in mice with established s.c. APTK tumors
Format: in vivo, C57BL/6 mice
Excerpt: Oral UA confers anti-tumor effects in murine colorectal cancer in a T-cell dependent manner. (FIG. 1A) Schematic representation of AOM model and different UA containing diets. (FIG. 1B) Representative images of swiss-roll sections from AOM-induced colon tumors. Scale bars are 2 mm (upper row) and 300 µm (lower row), respectively. (FIG. 1C) Tumor incidence of AOM-induced tumors receiving different UA-containing diets; n=4/5/5. Data are mean ±SD, depicting one of two independent experiments. *p < 0.05 by two-sided t-test. (FIG. 1D) Average lesion size of AOM-induced tumors receiving different UA-containing diets; n=4/5/5. Data are mean ±SD, depicting one of two independent experiments. *p < 0.05 by two-sided t-test. (FIG. 1E) Relative number of CD45^+CD3^+ T cells in colons of AOM-treated mice at week 24 (n>7, pooled from two independent experiments). Data are mean ± SD, **p < 0.01 by two-sided t-test. (FIG. 1F) Organoid treatment scheme. APTK-organoids were incubated in the presence of UA or DMSO for the indicated time points, prior to flow cytometric analysis. (FIG. 1G) Quantification of lysosome formation as assessed by lysotracker MFI via flow cytometry after 24 h incubation at the presence of various UA concentrations (n=5/4/4). Depicts one out of two indepdent experiments. Data are mean ± SD, *p < 0.05; **p < 0.01 as established via two-sided t-test. (FIG. 1H) Mitotracker signal of APTK organoids incubated for 24 h at the presence of UA in vitro (n=4/4/4) and antigen presentation via MHC-I molecules (I) after 48 h of treatment (n=4/4/4). Results from one out of two independent experiments are shown. Data are mean ± SD, statistical analysis was performed via two-sided t-test, *p < 0.05; **p < 0.01, ****p < 0.0001. (FIG. 1I) Upregulation of MHC-I by UA. (FIG. 1J) Experimental setup of oral UA administration in mice with established APTK-s.c. tumors. Treatment diet was initiated eleven days after tumor injection and maintained until the end of the experiment. (FIG. 1K) Growth curve of mice subcutaneously transplanted with APTK tumors, receiving either UA-containing or control food (n=7 per group). Data are mean ± SD, ***p <0.001 by two-sided t-test. One out of two independent experiments are shown. (FIG. 1L) End point tumor weight, (FIG. 1M) CD8+ T cell infiltration in APTK-s.c. tumors assessed by flow cytometry, normalising total number of CD8^+ T cells to tumor weight (n=7 per group). Data are mean ± SD, statistical analysis was performed via Mann-Whitney test, *p < 0.05 and ***p <0.001. (FIG. 1N) Size of subcutaneous APTK tumors in Rag1^-/- mice receiving UA-containing or control food (n=7 per group). Treatment was initiated as depicted in FIG. 1J. Data are mean +-SD, depicting one out of two independent experiments. […]

SMILES: O=c1oc2cc(O)ccc2c2ccc(O)cc12 [Urolithin A]
- tumor growth (CD8+ T cell depleting antibodies, UA-containing or control food): exacerbated tumor growth in both control and UA-fed cohorts
- tumor growth (UA-containing food plus a-PD1): sensitized APTK tumors to PD-1 blockade
- CD8+ T cell infiltration (high-dose UA diet (2.28 g/kg)): enhanced CD8^+ T cell infiltration
- tumor growth (high-dose UA diet (2.28 g/kg), started eleven days after tumor injection): significantly reduced tumor growth
